From US20250136576A1, “Heterocyclic Compounds and Uses Thereof” (ACEA Therapeutics, Inc., priority 2021, published 2025)

Test system: KM12-luc cells
Experiment: Cell proliferation and growth inhibition assay (CCK-8) in KM12-luc
Type: cell-based
Details: KM12-Luc, 72 h, KM12-luc cells, treated with test compounds for 72 hrs, CCK-8 viability; read-out: NTRK IC50 in KM12-luc
Outline: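 IC50 values were fitted by sigmoidal dose-response non-linear regression of CCK-8 OD450 absorbance after 1-4 hrs with reagent. Culture media were IMDM for MV-4-11, RPMI 1640 for H1975 and DMEM for KM12-luc, each with 10% FBS at 37 °C, 5% CO2.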

Structure (SMILES)	IC50
CC(=O)Nc1cc(Nc2ncc(C(F)(F)F)c(-c3c[nH]c4cc(F)ccc34)n2)ccc1N(C)CCN(C)C [Compound 328a, N-(2-((2-(dimethylamino)ethyl)(methyl)amino)-5-((4-(6-fluoro-1H-indol-3-yl)-5-(trifluoromethyl)pyrimidin-2-yl)amino)phenyl)acetamide]	34.1 nM
CNc1cc(Nc2ncc(OC)c(-c3cn(C)nc3C)n2)ccc1N(C)CCN(C)C [Compound 290, N^4-(4-(1,3-dimethyl-1H-pyrazol-4-yl)-5-methoxypyrimidin-2-yl)-N1-(2-(dimethylamino)ethyl)-N^1,N^2-dimethylbenzene-1,2,4-triamine]	> 10000 nM
Cc1nc2cc(Nc3ncc(C(F)(F)F)c(-c4c[nH]c5ccccc45)n3)ccc2n1CCN(C)C [Compound 303b, N^1—N-(4-(1H-indol-3-yl)-5-(trifluoromethyl)pyrimidin-2-yl)-1-(2-(dimethylamino)ethyl)-2-methyl-1H-benzo[d]imidazol-5-amine]	64.3 nM
CN1CCN(c2ccc(C(=O)Nc3c[nH]c4cnc(Nc5cc(F)cc(F)c5)nc34)c(NC3CCOCC3)c2)CC1 [Compound 491, N-(2-((3,5-difluorophenyl)amino)-5H-pyrrolo[3,2-d]pyrimidin-7-yl)-4-(4-methylpiperazin-1-yl)-2-((tetrahydro-2H-pyran-4-yl)amino)benzamide]	> 3330 nM
CC(=O)Nc1cc(Nc2ncc(C(F)(F)F)c(-c3c[nH]c4ccccc34)n2)cc(F)c1N(C)CCN(C)C [Compound 299a, N-(5-((4-(1H-indol-3-yl)-5-(trifluoromethyl)pyrimidin-2-yl)amino)-2-((2-(dimethylamino)ethyl)(methyl)amino)-3-fluorophenyl)acetamide]	48.1 nM
CN(C)CCN(C)c1ccc(Nc2ncc(C(F)(F)F)c(-c3cn(C)c4ccccc34)n2)cc1N [Compound 306, N^1-(2-(dimethylamino)ethyl)-N^1-methyl-N^4-(4-(1-methyl-1H-indol-3-yl)-5-(trifluoromethyl)pyrimidin-2-yl)benzene-1,2,4-triamine]	56.1 nM
CCN(CCN(C)C)c1cc(F)c(Nc2nc(-c3cn(C)c4cccc(F)c34)c3cc[nH]c3n2)cc1NC(C)=O [Compound 222, N-(2-((2-(dimethylamino)ethyl)(ethyl)amino)-4-fluoro-5-((4-(4-fluoro-1-methyl-1H-indol-3-yl)-7H-pyrrolo[2,3-d]pyrimidin-2-yl)amino)phenyl)acetamide]	1440 nM
CC(=O)Nc1cc(Nc2ncc(C(F)(F)F)c(-c3cn(C)c4ccc(C)cc34)n2)ccc1N(C)CCN(C)C [Compound 356, N-(5-((4-(1,5-dimethyl-1H-indol-3-yl)-5-(trifluoromethyl)pyrimidin-2-yl)amino)-2-((2-(dimethylamino)ethyl)(methyl)amino)phenyl)acetamide]	327 nM
CCN(C(=O)CCN(C)C)c1ccc(Nc2ncc(Cl)c(-c3c[nH]c4ccccc34)n2)cc1NC(C)=O [Compound 451, N-(2-acetamido-4-((5-chloro-4-(1H-indol-3-yl)pyrimidin-2-yl)amino)phenyl)-3-(dimethylamino)-N-ethylpropanamide]	14.2 nM
CC(=O)Nc1cc(Nc2ncc(F)c(-c3c[nH]c4cc(F)ccc34)n2)ccc1N(C)CCN(C)C [Compound 266, N-(2-((2-(dimethylamino)ethyl)(methyl)amino)-5-((5-fluoro-4-(6-fluoro-1H-indol-3-yl)pyrimidin-2-yl)amino)phenyl)acetamide]	764 nM
CC(=O)Nc1cc(Nc2ncc(F)c(-c3cn(C)c4ccccc34)n2)ccc1N(C)CCN(C)C [Compound 261, N-(2-((2-(dimethylamino)ethyl)(methyl)amino)-5-((5-fluoro-4-(1-methyl-1H-indol-3-yl)pyrimidin-2-yl)amino)phenyl)acetamide]	509 nM
CN(C)CCN(C)c1ccc(Nc2nc(-c3cn(C)c4ccccc34)c3cc[nH]c3n2)cc1NS(C)(=O)=O [Compound 205c, N-(2-((2-(dimethylamino)ethyl)(methyl)amino)-5-((4-(1-methyl-1H-indol-3-yl)-7H-pyrrolo[2,3-d]pyrimidin-2-yl)amino)phenyl)methanesulfonamide]	329 nM
CN(C)CCN(C)c1ccc(Nc2ncc(C(F)(F)F)c(-c3c[nH]c4cc(F)ccc34)n2)cc1N [Compound 329, N^1-(2-(dimethylamino)ethyl)-N^4-(4-(6-fluoro-1H-indol-3-yl)-5-(trifluoromethyl)pyrimidin-2-yl)-N^1-methylbenzene-1,2,4-triamine]	72.1 nM
CN1CCN(c2ccc(C(=O)Nc3c[nH]c4ccc(Cc5cc(F)cc(F)c5)cc34)c(NC3CCOCC3)c2)CC1 [Compound 505, N-(5-(3,5-difluorobenzyl)-1H-indol-3-yl)-4-(4-methylpiperazin-1-yl)-2-((tetrahydro-2H-pyran-4-yl)amino)benzamide]	> 1000 nM
CN(C)CCN(C)c1ccc(Nc2nc(-c3cn(C)c4ccccc34)c3cc[nH]c3n2)cc1N [Compound 204, N^1-(2-(dimethylamino)ethyl)-N^1-methyl-N^4-(4-(1-methyl-1H-indol-3-yl)-7H-pyrrolo[2,3-d]pyrimidin-2-yl)benzene-1,2,4-triamine]	45.8 nM
CCN(CCN(C)C)c1ccc(Nc2nc(-c3c[nH]c4ccccc34)ncc2C(F)(F)F)cc1NC(C)=O [Compound 300b, N-(5-((2-(1H-indol-3-yl)-5-(trifluoromethyl)pyrimidin-4-yl)amino)-2-((2-(dimethylamino)ethyl)(ethyl)amino)phenyl)acetamide]	3680 nM
CC(=O)Nc1cc(Nc2ncc(Cl)c(-c3c[nH]c4c(F)cccc34)n2)ccc1N1CC[C@H](N(C)C)C1 [Compound S-409, (S)—N-(5-((5-chloro-4-(7-fluoro-1H-indol-3-yl)pyrimidin-2-yl)amino)-2-(3-(dimethylamino)pyrrolidin-1-yl)phenyl)acetamide]	24.6 nM
COc1cnc(Nc2ccc(N(C)CCN(C)C)c(NC(C)=O)c2)nc1-c1cn(C)nc1C [Compound 289, N-(5-((4-(1,3-dimethyl-1H-pyrazol-4-yl)-5-methoxypyrimidin-2-yl)amino)-2-((2-(dimethylamino)ethyl)(methyl)amino)phenyl)acetamide]	> 10000 nM
CNc1cc(Nc2ncc(OC)c(-c3c[nH]c4ccccc34)n2)ccc1N(C)CCN(C)C [Compound 273a, N^4-(4-(1H-indol-3-yl)-5-methoxypyrimidin-2-yl)-N1-(2-(dimethylamino)ethyl)-N^1,N^2-dimethylbenzene-1,2,4-triamine]	127 nM
CCC(=O)Nc1cccc(Nc2ncc(F)c(Nc3ccc(N4CCN(C(C)=O)CC4)c(F)c3)n2)c1 [Compound 158, N-(3-((4-((4-(4-acetylpiperazin-1-yl)-3-fluorophenyl)amino)-5-fluoropyrimidin-2-yl)amino)phenyl)propionamide]	> 1000 nM
CN(C)CCN(C)c1ccc(Nc2ncc(C(F)(F)F)c(-c3c[nH]c4ccccc34)n2)cc1N [Compound 297, N^4-(4-(1H-indol-3-yl)-5-(trifluoromethyl)pyrimidin-2-yl)-N^1-(2-(dimethylamino)ethyl)-N^1-methylbenzene-1,2,4-triamine]	37.7 nM
COc1cccc2c(-c3nc(Nc4ccc(N(CCN(C)C)C(C)=O)c(NC(C)=O)c4)ncc3C(F)(F)F)cn(C)c12 [Compound 386, N-(2-acetamido-4-((4-(7-methoxy-1-methyl-1H-indol-3-yl)-5-(trifluoromethyl)pyrimidin-2-yl)amino)phenyl)-N-(2-(dimethylamino)ethyl)acetamide]	43.9 nM
CN(C)CCN(C)c1ccc(Nc2ncc(C(F)(F)F)c(-c3cn(C)c4c(F)cccc34)n2)cc1N [Compound 347, N^1-(2-(dimethylamino)ethyl)-N^4-(4-(7-fluoro-1-methyl-1H-indol-3-yl)-5-(trifluoromethyl)pyrimidin-2-yl)-N^1-methylbenzene-1,2,4-triamine]	114 nM
CCN(CCN(C)C)c1ccc(Nc2nc(-c3cn(C)c4ccccc34)c3cc[nH]c3n2)cc1F [Compound 208, N^1-(2-(dimethylamino)ethyl)-N^1-ethyl-2-fluoro-N^4-(4-(1-methyl-1H-indol-3-yl)-7H-pyrrolo[2,3-d]pyrimidin-2-yl)benzene-1,4-diamine]	381 nM
CCN(CCN(C)C)c1ccc(Nc2nc(-c3cn(C)c4ccccc34)c3cc[nH]c3n2)cc1NC(=O)C(C)C [Compound 212d, N-(2-((2-(dimethylamino)ethyl)(ethyl)amino)-5-((4-(1-methyl-1H-indol-3-yl)-7H-pyrrolo[2,3-d]pyrimidin-2-yl)amino)phenyl)isobutyramide]	93.1 nM
COc1cccc2c(-c3nc(Nc4ccc(N(C)CCN(C)C)c(N)c4)ncc3C(F)(F)F)cn(C)c12 [Compound 385, N^1-(2-(dimethylamino)ethyl)-N^4-(4-(7-methoxy-1-methyl-1H-indol-3-yl)-5-(trifluoromethyl)pyrimidin-2-yl)-N^1-methylbenzene-1,2,4-triamine]	45.3 nM
COc1cnc(Nc2ccc(OCCN(C)C)c(NC(C)=O)c2)nc1-c1c[nH]c2c(F)cccc12 [Compound 279, N-(2-(2-(dimethylamino)ethoxy)-5-((4-(7-fluoro-1H-indol-3-yl)-5-methoxypyrimidin-2-yl)amino)phenyl)acetamide]	52.6 nM
COc1nc(Nc2cc(F)c(N(C)CCN(C)C)c(NC(C)=O)c2)nc(-c2cn(C)c3ccccc23)c1OC [Compound 291b, N-(5-((4,5-dimethoxy-6-(1-methyl-1H-indol-3-yl)pyrimidin-2-yl)amino)-2-((2-(dimethylamino)ethyl)(methyl)amino)-3-fluorophenyl)acetamide]	1400 nM

Same assay, conditions: KM12-Luc, 72 h, read-out: NTRK IC50 in KM12-luc

Structure (SMILES)	IC50
CC(=O)Nc1cc(Nc2nc(-c3cn(C)c4cc(F)ccc34)c3cc[nH]c3n2)ccc1N(C)CCN(C)C [Compound 232a, N-(2-((2-(dimethylamino)ethyl)(methyl)amino)-5-((4-(6-fluoro-1-methyl-1H-indol-3-yl)-7H-pyrrolo[2,3-d]pyrimidin-2-yl)amino)phenyl)acetamide]	85.5 nM
